From PubChem BioAssay (NCI)
Values joined by “and” are separate entries in the source; they are usually repeats but may differ in a detail not shown here. Equal values may be shown once.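 Where inhibition never reached the appropriate level, the endpoint shown equals the highest concentration tested. Otherwise, values were interpolated linearly from a five-concentration, 48-hour dose response in 96-well plates. At the GI50, growth is halved. TGI: total growth inhibition.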

What follows are compounds tested on UACC-257 melanoma (assay: inhibition of tumour cell growth, NCI panel, 48 h).
In the case of `Oc1ccc2ccccc2c1N=Nc1nccs1`, the GI50 is reported as 3.1 µM and the TGI is reported as 16.4 µM.
In the case of `CC(=O)OCCN1c2ccccc2Sc2cnccc21`, the TGI is reported as > 10 µM.
With `COc1ccc(/C(COc2c(-c3ccccc3)oc3ccccc3c2=O)=N\O)cc1` the GI50 was 17.8 µM and the TGI was > 50 µM.
For `Cn1c(=O)c2[nH]c(SCc3ccccn3)nc2n(C)c1=S`, the TGI was > 100 µM.
For `COc1cc2c(c(O)c1Br)C(=O)c1c(O)cc(C[C@H](C)O)cc1[C@H]2[C@H]1c2cc(C[C@H](C)O)cc(O)c2C(=O)c2c1cc(OC)c(Br)c2O`, the GI50 was 11.2 µM and 19.1 µM and the TGI was 39.8 µM and 67.7 µM.
With `COc1ccc(-c2cc(=O)c3ccc(O)cc3o2)cc1OC` the TGI was > 100 µM.
`CC[C@]1(O)C[C@@H]2CN(CCc3c([nH]c4ccccc34)[C@@](C(=O)OC)(c3cc4c(cc3OC)N(C)[C@H]3[C@@](O)(C(=O)OC)[C@H](OC(C)=O)[C@]5(CC)C=CCN6CC[C@]43[C@@H]65)C2)C1` showed a GI50 of 14.6 µM and a TGI of 37.8 µM.
In the case of `N#CSc1c[nH]c2cccc(/C=C/C(=O)/C=C(/C=C/c3cccc4[nH]cc(SC#N)c34)OB(F)F)c12`, the GI50 is reported as 1.98 µM and the TGI is reported as 10.9 µM.
`C=CC(=O)N1CC2(CCN(c3nc(OC4CCN(CCCOC)CC4)nc4c(OCC(F)(F)F)c(-c5c(C)ccc6[nH]ncc56)c(C5CC5)cc34)CC2)C1` gave a GI50 of 3.03 µM and a TGI of 12.4 µM.
For `FC(F)(F)c1cccc(Nc2nccc(-c3cnn4nc(-c5ccccc5)ccc34)n2)c1`, the GI50 was 15.8 µM and the TGI was > 25 µM.
For `CC[C@@H]1C(=O)N(C)c2cnc(Nc3ccc(C(=O)NC4CCN(C)CC4)cc3OC)nc2N1C1CCCC1`, the GI50 was 0.903 µM and 0.103 µM and the TGI was > 5.26 µM and 1.98 µM.
With `C=C1C(=O)O[C@H]2[C@H]1CC/C(COC(=O)c1ccc3ccccc3c1)=C\CC[C@@]1(C)O[C@@H]21` the GI50 was 1.39 µM and the TGI was 2.78 µM.
Work on `CC[CH2][Sn]([CH2]CC)([O]C(=O)c1cccnc1SC)[O][Sn]([CH2]CC)([CH2]CC)[O]C(=O)c1cccnc1SC` yielded a GI50 of 0.594 µM and a TGI of 1.72 µM.
`CC(C)c1nc(CN(C)C(=O)N[C@H](C(=O)N[C@@H](Cc2ccccc2)C[C@H](O)[C@H](Cc2ccccc2)NC(=O)OCc2cncs2)C(C)C)cs1` gave a GI50 of 18.4 µM and a TGI of 38 µM.

Each compound was assayed on UACC-62 melanoma (assay: inhibition of tumour cell growth, NCI panel, 48 h).
With `CN1CCN(C(=O)OCc2nc3c(N4CCOCC4)nc(Cl)nc3n2C)CC1` the GI50 was 1.38 µM and the TGI was 2.8 µM.
In the case of `COC(=O)[C@]12CC[C@@H](C)[C@H](C)[C@@H]1C1=CC[C@@H]3[C@@]4(C)C/C(=N\O)[C@H](O)[C@@]5(C)COC(=C45)C[C@@]3(C)[C@]1(C)CC2`, the GI50 is reported as 12.6 µM and the TGI is reported as 27.1 µM.
In the case of `Oc1c(CN2CCC(N3CCCCC3)CC2)cc(Cc2cc(CN3CCC(N4CCCCC4)CC3)c(O)c3ncccc23)c2cccnc12`, the GI50 is reported as 0.609 µM and the TGI is reported as 5.17 µM.
In the case of `Cn1c2ccccc2c2c(-c3ccccc3)[n+]3ccncc3nc21`, the GI50 is reported as > 100 µM and the TGI is reported as > 100 µM.
In the case of `COc1ccc(-c2cnnc3c(-c4cccc(C(F)(F)F)c4)cnn23)cc1`, the GI50 is reported as 4.01 µM and the TGI is reported as > 100 µM.
`NC(=O)c1ccc(I)c(N)c1` was tested, and the GI50 was > 100 µM and the TGI was > 100 µM.
`CC/C(=C(/c1ccc(O)cc1)c1ccc(OCCNC)cc1)c1ccccc1` was tested, and the GI50 was 1.8 µM and the TGI was 3.54 µM.
With `O=C(/C(Br)=C/c1ccccc1)c1ccccc1` the GI50 was 1.94 µM and the TGI was 3.81 µM.
`C=C1C(=O)O[C@H]2[C@H]1CC/C(Cn1cc(-c3ccc(OC)cc3)nn1)=C\CC[C@@]1(C)O[C@@H]21` was tested, and the GI50 was 1.35 µM and the TGI was 2.99 µM.
In the case of `O=C1CCCCN1CCCCC#Cc1ccccc1C#Cc1ccc([N+](=O)[O-])cc1`, the GI50 is reported as 5.77 µM and the TGI is reported as 20.3 µM.
For `CCOc1cc2c(Cl)ncnc2c(OCC)c1OCC`, the GI50 was 6.99 µM and the TGI was 20.2 µM.
`Oc1ccc2ccccc2c1N=Nc1nccs1` gave a GI50 of 2.3 µM and a TGI of 24.3 µM.
In the case of `CC(=O)OCCN1c2ccccc2Sc2cnccc21`, the TGI is reported as > 10 µM.
For `COc1ccc(/C(COc2c(-c3ccccc3)oc3ccccc3c2=O)=N\O)cc1`, the GI50 was 12.7 µM and the TGI was 43.5 µM.
For `Cn1c(=O)c2[nH]c(SCc3ccccn3)nc2n(C)c1=S`, the TGI was > 100 µM.
For `COc1cc2c(c(O)c1Br)C(=O)c1c(O)cc(C[C@H](C)O)cc1[C@H]2[C@H]1c2cc(C[C@H](C)O)cc(O)c2C(=O)c2c1cc(OC)c(Br)c2O`, the GI50 was 2.47 µM and 17.5 µM and the TGI was 13.7 µM and 90.7 µM.
In the case of `COc1ccc(-c2cc(=O)c3ccc(O)cc3o2)cc1OC`, the TGI is reported as > 100 µM.
In the case of `CC[C@]1(O)C[C@@H]2CN(CCc3c([nH]c4ccccc34)[C@@](C(=O)OC)(c3cc4c(cc3OC)N(C)[C@H]3[C@@](O)(C(=O)OC)[C@H](OC(C)=O)[C@]5(CC)C=CCN6CC[C@]43[C@@H]65)C2)C1`, the GI50 is reported as < 0.01 µM and the TGI is reported as 17.4 µM.
With `N#CSc1c[nH]c2cccc(/C=C/C(=O)/C=C(/C=C/c3cccc4[nH]cc(SC#N)c34)OB(F)F)c12` the GI50 was 0.628 µM and the TGI was 2.56 µM.
`C=CC(=O)N1CC2(CCN(c3nc(OC4CCN(CCCOC)CC4)nc4c(OCC(F)(F)F)c(-c5c(C)ccc6[nH]ncc56)c(C5CC5)cc34)CC2)C1` was tested, and the GI50 was 5.27 µM and the TGI was 18.9 µM.
For `FC(F)(F)c1cccc(Nc2nccc(-c3cnn4nc(-c5ccccc5)ccc34)n2)c1`, the GI50 was 14.4 µM and the TGI was > 25 µM.
With `CC[C@@H]1C(=O)N(C)c2cnc(Nc3ccc(C(=O)NC4CCN(C)CC4)cc3OC)nc2N1C1CCCC1` the GI50 was 0.0101 µM and 0.0252 µM and the TGI was > 4.41 µM and 4.21 µM.
With `C=C1C(=O)O[C@H]2[C@H]1CC/C(COC(=O)c1ccc3ccccc3c1)=C\CC[C@@]1(C)O[C@@H]21` the GI50 was 1.22 µM and the TGI was 2.53 µM.
For `CC[CH2][Sn]([CH2]CC)([O]C(=O)c1cccnc1SC)[O][Sn]([CH2]CC)([CH2]CC)[O]C(=O)c1cccnc1SC`, the GI50 was 0.343 µM and the TGI was 0.809 µM.
With `CC(C)c1nc(CN(C)C(=O)N[C@H](C(=O)N[C@@H](Cc2ccccc2)C[C@H](O)[C@H](Cc2ccccc2)NC(=O)OCc2cncs2)C(C)C)cs1` the GI50 was 18.5 µM and the TGI was 34.9 µM.

These compounds were tested on HCT-116 colon (assay: inhibition of tumour cell growth, NCI panel, 48 h).
For `CN1CCN(C(=O)OCc2nc3c(N4CCOCC4)nc(Cl)nc3n2C)CC1`, the GI50 was 0.343 µM and the TGI was 1.62 µM.
Work on `COC(=O)[C@]12CC[C@@H](C)[C@H](C)[C@@H]1C1=CC[C@@H]3[C@@]4(C)C/C(=N\O)[C@H](O)[C@@]5(C)COC(=C45)C[C@@]3(C)[C@]1(C)CC2` yielded a GI50 of 2.42 µM and a TGI of 7.11 µM.
Work on `Oc1c(CN2CCC(N3CCCCC3)CC2)cc(Cc2cc(CN3CCC(N4CCCCC4)CC3)c(O)c3ncccc23)c2cccnc12` yielded a GI50 of 0.725 µM and a TGI of 7.17 µM.
With `Cn1c2ccccc2c2c(-c3ccccc3)[n+]3ccncc3nc21` the GI50 was > 100 µM and the TGI was > 100 µM.
For `COc1ccc(-c2cnnc3c(-c4cccc(C(F)(F)F)c4)cnn23)cc1`, the GI50 was 3.46 µM and the TGI was > 100 µM.
In the case of `NC(=O)c1ccc(I)c(N)c1`, the GI50 is reported as > 100 µM and the TGI is reported as > 100 µM.
`CC/C(=C(/c1ccc(O)cc1)c1ccc(OCCNC)cc1)c1ccccc1` gave a GI50 of 1.68 µM and a TGI of 3.12 µM.
For `O=C(/C(Br)=C/c1ccccc1)c1ccccc1`, the GI50 was 1.64 µM and the TGI was 3.12 µM.
In the case of `C=C1C(=O)O[C@H]2[C@H]1CC/C(Cn1cc(-c3ccc(OC)cc3)nn1)=C\CC[C@@]1(C)O[C@@H]21`, the GI50 is reported as 0.488 µM and the TGI is reported as 1.79 µM.
Work on `O=C1CCCCN1CCCCC#Cc1ccccc1C#Cc1ccc([N+](=O)[O-])cc1` yielded a GI50 of 4.18 µM and a TGI of 13.5 µM.
`CCOc1cc2c(Cl)ncnc2c(OCC)c1OCC` showed a GI50 of 3.39 µM and a TGI of 11.9 µM.
With `Oc1ccc2ccccc2c1N=Nc1nccs1` the GI50 was 0.213 µM and the TGI was 6.09 µM.
`CC(=O)OCCN1c2ccccc2Sc2cnccc21` was tested, and the TGI was > 10 µM.
With `COc1ccc(/C(COc2c(-c3ccccc3)oc3ccccc3c2=O)=N\O)cc1` the GI50 was 21.8 µM and the TGI was > 50 µM.
With `Cn1c(=O)c2[nH]c(SCc3ccccn3)nc2n(C)c1=S` the TGI was > 100 µM.
`COc1cc2c(c(O)c1Br)C(=O)c1c(O)cc(C[C@H](C)O)cc1[C@H]2[C@H]1c2cc(C[C@H](C)O)cc(O)c2C(=O)c2c1cc(OC)c(Br)c2O` was tested, and the GI50 was 3.77 µM and 5.49 µM and the TGI was 67.5 µM and 63.1 µM.
`COc1ccc(-c2cc(=O)c3ccc(O)cc3o2)cc1OC` was tested, and the TGI was > 100 µM.
In the case of `CC[C@]1(O)C[C@@H]2CN(CCc3c([nH]c4ccccc34)[C@@](C(=O)OC)(c3cc4c(cc3OC)N(C)[C@H]3[C@@](O)(C(=O)OC)[C@H](OC(C)=O)[C@]5(CC)C=CCN6CC[C@]43[C@@H]65)C2)C1`, the GI50 is reported as < 0.01 µM and the TGI is reported as 15 µM.
Compound `N#CSc1c[nH]c2cccc(/C=C/C(=O)/C=C(/C=C/c3cccc4[nH]cc(SC#N)c34)OB(F)F)c12` has a GI50 of 0.244 µM and a TGI of 0.742 µM.
Work on `C=CC(=O)N1CC2(CCN(c3nc(OC4CCN(CCCOC)CC4)nc4c(OCC(F)(F)F)c(-c5c(C)ccc6[nH]ncc56)c(C5CC5)cc34)CC2)C1` yielded a GI50 of 1.95 µM and a TGI of 4.17 µM.
With `FC(F)(F)c1cccc(Nc2nccc(-c3cnn4nc(-c5ccccc5)ccc34)n2)c1` the GI50 was 5.92 µM and the TGI was 14.8 µM.
For `CC[C@@H]1C(=O)N(C)c2cnc(Nc3ccc(C(=O)NC4CCN(C)CC4)cc3OC)nc2N1C1CCCC1`, the GI50 was 0.00366 µM and < 0.01 µM and the TGI was > 4.05 µM and 1.45 µM.
Work on `C=C1C(=O)O[C@H]2[C@H]1CC/C(COC(=O)c1ccc3ccccc3c1)=C\CC[C@@]1(C)O[C@@H]21` yielded a GI50 of 0.379 µM and a TGI of 1.6 µM.
